Literature values in patent publication US20030108495A1, “Cosmetic compositions containing 2,2-dihydroxymethy1-1,3-dioxolanes” (priority 2001, published 2003).

Tested on: moisturized human skin
Details: cosmetic composition applied to moisturized human skin

**Q.** Which “time after initial application until tan appearance (brown-colored melanoidins)” value does the source give for O=C(CO)CO [DHA, 1,3-dihydroxyacetone] here?
**A.** approximately five
